From the supplement of paper PMC10307832

Experiments:
Assay in all cases: relative viability (nuclei count vs DMSO), 5 days (fraction); higher = more cells survive
201T = system: 201T
Summary of the method: (§1)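 Relative viability is defined as nuclei in treated wells over nuclei in vehicle wells. Duplicate plates were run and medians reported. Lung cancer cell lines in 1536-well plates were dosed by pin tool one day after seeding, with one drug or with a fixed anchor-drug dose plus five library-drug doses (not always all listed) in √10 steps, and nuclei were counted after 5 days.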

BEN = system: BEN
Summary of the method: as §1

COR-L 105 = system: COR-L 105
Summary of the method: as §1

EKVX = system: EKVX
Summary of the method: as §1

EPLC-272H = system: EPLC-272H
Summary of the method: as §1

H3255 = system: H3255
Summary of the method: as §1

HCC-44 = system: HCC-44
Summary of the method: as §1

HCC-827 = system: HCC-827
Summary of the method: as §1

HOP-62 = system: HOP-62
Summary of the method: as §1

LCLC-97TM1 = system: LCLC-97TM1
Summary of the method: as §1

LOU-NH91 = system: LOU-NH91
Summary of the method: as §1

LU99A = system: LU99A
Summary of the method: as §1

NCI-H1395 = system: NCI-H1395
Summary of the method: as §1

NCI-H1437 = system: NCI-H1437
Summary of the method: as §1

NCI-H1666 = system: NCI-H1666
Summary of the method: as §1

NCI-H1975 = system: NCI-H1975
Summary of the method: as §1

NCI-H2085 = system: NCI-H2085
Summary of the method: as §1

NCI-H2087 = system: NCI-H2087
Summary of the method: as §1

NCI-H2342 = system: NCI-H2342
Summary of the method: as §1

NCI-H358 = system: NCI-H358
Summary of the method: as §1

NCI-H647 = system: NCI-H647
Summary of the method: as §1

PC-3 [JPC-3] = system: PC-3 [JPC-3]
Summary of the method: as §1

SW 1573 = system: SW 1573
Summary of the method: as §1

`O=C(O)c1ccc(-c2c[nH]c3ncc(-c4ccccc4)cc23)cc1C1CCCC1` + O=C(CCCCCCC(=O)Nc1ccccc1)NO [Vorinostat] (partner 1 µM) showed a relative viability (201T; first compound 0.04 µM) of 0.949, a relative viability (201T; first compound 0.1265 µM) of 0.963 and a relative viability (201T; first compound 0.4 µM) of 0.952. It also gave a relative viability (201T; first compound 1.265 µM) of 0.989, a relative viability (BEN; first compound 0.04 µM) of 0.507 and a relative viability (BEN; first compound 0.1265 µM) of 0.614. The relative viability (BEN; first compound 0.4 µM) was 0.475, the relative viability (BEN; first compound 1.265 µM) was 0.505 and the relative viability (COR-L 105; first compound 0.04 µM) was 0.912. It also gave a relative viability (COR-L 105; first compound 0.1265 µM) of 0.942, a relative viability (COR-L 105; first compound 0.4 µM) of 0.773 and a relative viability (COR-L 105; first compound 1.265 µM) of 0.921. For the same molecule, the relative viability (EKVX; first compound 0.04 µM) was 0.846, the relative viability (EKVX; first compound 0.1265 µM) was 0.758 and the relative viability (EKVX; first compound 0.4 µM) was 0.713. The relative viability (EKVX; first compound 1.265 µM) was 0.712, the relative viability (EPLC-272H; first compound 0.04 µM) was 0.503 and the relative viability (EPLC-272H; first compound 0.1265 µM) was 0.654. It also gave a relative viability (EPLC-272H; first compound 0.4 µM) of 0.483, a relative viability (EPLC-272H; first compound 1.265 µM) of 0.261 and a relative viability (H3255; first compound 0.04 µM) of 0.872. The relative viability (H3255; first compound 0.1265 µM) was 0.795, the relative viability (H3255; first compound 0.4 µM) was 0.83 and the relative viability (H3255; first compound 1.265 µM) was 0.791. The relative viability (HCC-44; first compound 0.04 µM) was 1.04, the relative viability (HCC-44; first compound 0.1265 µM) was 1.06 and the relative viability (HCC-44; first compound 0.4 µM) was 1.02. It also gave a relative viability (HCC-44; first compound 1.265 µM) of 0.971, a relative viability (HCC-827; first compound 0.04 µM) of 0.372 and a relative viability (HCC-827; first compound 0.1265 µM) of 0.913. It also gave a relative viability (HCC-827; first compound 0.4 µM) of 0.815, a relative viability (HCC-827; first compound 1.265 µM) of 0.75 and a relative viability (HOP-62; first compound 0.04 µM) of 0.694. The relative viability (HOP-62; first compound 0.1265 µM) was 0.606, the relative viability (HOP-62; first compound 0.4 µM) was 0.594 and the relative viability (HOP-62; first compound 1.265 µM) was 0.48. For the same molecule, the relative viability (LCLC-97TM1; first compound 0.04 µM) was 0.876, the relative viability (LCLC-97TM1; first compound 0.1265 µM) was 0.94 and the relative viability (LCLC-97TM1; first compound 0.4 µM) was 0.747. For the same molecule, the relative viability (LCLC-97TM1; first compound 1.265 µM) was 0.525, the relative viability (LOU-NH91; first compound 0.04 µM) was 0.987 and the relative viability (LOU-NH91; first compound 0.1265 µM) was 0.992. The relative viability (LOU-NH91; first compound 0.4 µM) was 0.942, the relative viability (LOU-NH91; first compound 1.265 µM) was 0.86 and the relative viability (LU99A; first compound 0.04 µM) was 0.583. It also gave a relative viability (LU99A; first compound 0.1265 µM) of 0.46, a relative viability (LU99A; first compound 0.4 µM) of 0.469 and a relative viability (LU99A; first compound 1.265 µM) of 0.421. For the same molecule, the relative viability (NCI-H1395; first compound 0.04 µM) was 0.7, the relative viability (NCI-H1395; first compound 0.1265 µM) was 0.67 and the relative viability (NCI-H1395; first compound 0.4 µM) was 0.672. For the same molecule, the relative viability (NCI-H1395; first compound 1.265 µM) was 0.683, the relative viability (NCI-H1437; first compound 0.04 µM) was 0.842 and the relative viability (NCI-H1437; first compound 0.1265 µM) was 0.814. It also gave a relative viability (NCI-H1437; first compound 0.4 µM) of 0.531, a relative viability (NCI-H1437; first compound 1.265 µM) of 0.326 and a relative viability (NCI-H1666; first compound 0.04 µM) of 1.04. For the same molecule, the relative viability (NCI-H1666; first compound 0.1265 µM) was 1.02, the relative viability (NCI-H1666; first compound 0.4 µM) was 1.08 and the relative viability (NCI-H1666; first compound 1.265 µM) was 0.737. For the same molecule, the relative viability (NCI-H1975; first compound 0.04 µM) was 0.684, the relative viability (NCI-H1975; first compound 0.1265 µM) was 0.763 and the relative viability (NCI-H1975; first compound 0.4 µM) was 0.736. It also gave a relative viability (NCI-H1975; first compound 1.265 µM) of 0.441, a relative viability (NCI-H2085; first compound 0.04 µM) of 0.793 and a relative viability (NCI-H2085; first compound 0.1265 µM) of 0.857. For the same molecule, the relative viability (NCI-H2085; first compound 0.4 µM) was 0.779, the relative viability (NCI-H2085; first compound 1.265 µM) was 0.642 and the relative viability (NCI-H2087; first compound 0.04 µM) was 0.916. For the same molecule, the relative viability (NCI-H2087; first compound 0.1265 µM) was 0.924, the relative viability (NCI-H2087; first compound 0.4 µM) was 0.611 and the relative viability (NCI-H2087; first compound 1.265 µM) was 0.465. For the same molecule, the relative viability (NCI-H2342; first compound 0.04 µM) was 0.783, the relative viability (NCI-H2342; first compound 0.1265 µM) was 0.762 and the relative viability (NCI-H2342; first compound 0.4 µM) was 0.818. The relative viability (NCI-H2342; first compound 1.265 µM) was 0.874, the relative viability (NCI-H358; first compound 0.04 µM) was 0.574 and the relative viability (NCI-H358; first compound 0.1265 µM) was 0.795. For the same molecule, the relative viability (NCI-H358; first compound 0.4 µM) was 0.536, the relative viability (NCI-H358; first compound 1.265 µM) was 0.229 and the relative viability (NCI-H647; first compound 0.04 µM) was 0.645. It also gave a relative viability (NCI-H647; first compound 0.1265 µM) of 0.47, a relative viability (NCI-H647; first compound 0.4 µM) of 0.491 and a relative viability (NCI-H647; first compound 1.265 µM) of 0.361. For the same molecule, the relative viability (PC-3 [JPC-3]; first compound 0.04 µM) was 0.803, the relative viability (PC-3 [JPC-3]; first compound 0.1265 µM) was 0.836 and the relative viability (PC-3 [JPC-3]; first compound 0.4 µM) was 0.787. The relative viability (PC-3 [JPC-3]; first compound 1.265 µM) was 0.667, the relative viability (SW 1573; first compound 0.04 µM) was 0.949 and the relative viability (SW 1573; first compound 0.1265 µM) was 0.878. For the same molecule, the relative viability (SW 1573; first compound 0.4 µM) was 0.699 and the relative viability (SW 1573; first compound 1.265 µM) was 0.656.
